In patent US12016858B2, “Methods for the treatment of abnormal involuntary movement disorders” (AUSPEX PHARMACEUTICALS, INC., priority 2015, dated 2024):

How the values were obtained:
[1] = tested on: subjects with manifest HD, chorea; test: ARC-HD open-label, single-arm study (Rollover and Switch cohorts); assay type: in vivo, human
Excerpt: In a second clinical trial, a method for converting patients with adequate control of chorea with tetrabenazine to deutetrabenazine treatment was implemented. Alternatives for Reducing Chorea in Huntington Disease (ARC-HD) was an open-label, single-arm study in which subjects with manifest HD who were receiving FDA-approved doses of tetrabenazine for the treatment of chorea or had successfully completed First-HD were invited to participate. The study thus comprised two cohorts. […] Other key inclusion criteria for the study included: diagnosed with manifest HD, as indicated by characteristic motor examination features; a documented expanded cytosine adenine guanine (CAG) repeat (≥37) and Total Functional Capacity (TFC) score ≥5 at or before Screening; able to ambulate without assistance for at least 20 yards ([…] devices such as walker or cane permitted); and subject has a reliable caregiver who interacts with the subject on a daily basis, oversees study drug administration, assures attendance at study visits, and participates in evaluations, as required. Key exclusion criteria included serious untreated or undertreated psychiatric illness (e.g., depression) at Screening or Baseline; concomitant dopamine receptor antagonists, dopamine agonists, levodopa, reserpine, N-methyl-D-aspartate receptor antagonists, or monoamine oxidase inhibitors within 30 days of Screening or Baseline; and score ≥11 on the depression subscale of the Hospital Anxiety and Depression Scale (HADS), a score of ≥11 on the Swallowing Disturbance Questionnaire (SDQ), or a Unified Parkinson's Disease Rating Scale (UPDRS) dysarthria score of ≥3 at Screening or Baseline. The guidance for investigators on conversion of subjects from stable doses of tetrabenazine to deutetrabenazine in the ARC-HD Switch study was designed to minimize the risk that dose conversion would result in either loss of efficacy or increased adverse events. The conversion method applied was based on modeling and simulation of Phase 1 pharmacokinetic data for deutetrabenazine and tetrabenazine. The objective of the pharmacokinetic analysis was to identify an initial dosing regimen of deutetrabenazine predicted to provide exposure at steady state of the active α and β metabolites that was less than or equal to the predicted AUC at steady state of the active alpha and beta metabolites of tetrabenazine, but with a lower Cmax. Subjects in the Switch cohort completed a full screening evaluation. […] Subjects received existing tetrabenazine regimen through midnight of Day 0 and switched to their assigned deutetrabenazine regimen the next morning (Day 1 of the study). […] The investigator, in consultation with the subject and caregiver, determined when an adequate level of chorea control had been achieved. If a subject experienced a “clinically significant” adverse event attributable to deutetrabenazine, the investigator determined if a dose reduction or suspension was necessary. […] The deutetrabenazine dose for these subjects was titrated from a starting dose of 6 mg per day to a dose that controlled chorea and was well tolerated. For both cohorts, oral tablets at strengths of 6 mg, 9 mg, and 12 mg were used. Doses of 12 mg and higher were administered in two divided doses approximately 10 hours apart. All study treatment regimens were administered orally with meals. The maximum total daily dose of deutetrabenazine was set at 72 mg per day, unless the subject was receiving a strong CYP2D6 inhibitor (e.g., paroxetine), in which case the maximum total daily dose was 36 mg. Subjects attended regular clinic visits to evaluate safety and establish an optimal dose. The investigator, in consultation with the subject and caregiver, determined when an adequate level of chorea control was achieved; the dose of DTBZ could be increased on a weekly basis until there was adequate control of chorea, the subject experienced a protocol defined clinically significant adverse event, or the maximal allowable dose was reached. […]

[2] = tested on: subjects with chorea associated with HD; details: in vivo
Method: First-HD was a randomized, double-blind, placebo-controlled, parallel-group study designed to evaluate the efficacy, safety, and tolerability of deutetrabenazine in subjects with chorea associated with HD. This trial was conducted in the United States and Canada, in collaboration with the Huntington Study Group.
Subjects in First-HD were treated with deutetrabenazine or placebo, starting at 6 mg once per day and titrating weekly to doses of up to 24 mg twice per day (48 mg total maximum daily dose). A total of 90 subjects (45 in each group) were enrolled for evaluation over 13 weeks. Subjects were individually titrated to an optimal dose over up to eight weeks, received maintenance therapy at the optimal dose for four weeks, and were taken off study medication in the final week of the trial.
The primary efficacy endpoint for the study was the change from baseline to maintenance therapy (average of Week 9 and Week 12 values) in the maximal chorea score of the UHDRS. The total maximal score, or TMC, is a clinician-based, quantitative assessment of chorea in seven body regions: face, mouth/tongue, trunk, and the four extremities, with higher scores representing more severe chorea.
The total motor score (TMS) of the UHDRS was prespecified as an additional efficacy endpoint in First-HD. The TMS assesses all the motor features of HD, including items addressing characteristic motor abnormalities other than chorea, such as dystonia, gait, parkinsonism, and postural instability.
The clinical relevance of the change in the TMC score was assessed with four prespecified secondary endpoints that assessed changes from baseline to end of treatment (Week 12). These secondary endpoints were tested in a hierarchical manner: • 1. Treatment success based on patient global impression of change (PGIC); • 2. Treatment success based on clinical global impression of change (CGIC); • 3. Physical Functioning Scale of the SF-36; and • 4. Balance, as assessed by the Berg Balance Test (BBT).
The PGIC and CGIC are single-item questionnaires that ask the subject and investigator, respectively, to assess a subject's overall HD symptoms at specific visits after initiating therapy. Both assessments use a 7-point Likert Scale, with responses ranging from Very Much Worse (−3) to Very Much Improved (+3) to assess overall response to therapy.
Adverse events (AE) and their potential association with treatment were also monitored. Categories of AEs of particular focus included those known to be associated with tetrabenazine use: • Psychiatric disorders: insomnia, depression/agitated depression, abnormal dreams, agitation, anxiety, suicidal ideation, compulsions, impulsive behavior, and sleep disorders; • Nervous system disorders: somnolence, dizziness, akathisia/restlessness, cognitive disorders, drooling, dyskinesia, migraine, headache, loss of consciousness, and syncope (fainting); • General disorders: irritability, fatigue, gait disturbance, chest pain, and hangover; and • Gastrointestinal disorders: diarrhea, dry mouth, constipation, nausea, upper abdominal pain, dyspepsia, frequent bowel movements, gastrointestinal pain, vomiting, dysphagia, flatulence, and salivary hypersecretion.
In addition to AE reporting, rating scales were used to monitor for potential subclinical toxicity due to excessive monoamine depletion. […] These scales applied in First-HD included the Hospital Anxiety and Depression Scale (HADS), the Columbia Suicide Severity Rating Scale (C-SSRS), the Swallowing Disturbance Questionnaire (SDQ), the Unified Parkinson's Disease Rating Scale (dysarthria item) (UPDRS [dysarthria]), the Barnes Akathisia Rating Scale (BARS), and the Epworth Sleepiness Scale (ESS). In addition, the UHDRS, which includes cognitive, behavioral, and functional measures, was performed at key visits.

Structure (SMILES): [2H]C([2H])([2H])Oc1cc2c(cc1OC([2H])([2H])[2H])C1CC(=O)C(CC(C)C)CN1CC2 (stereo not drawn) [deutetrabenazine, (RR, SS)-1,3,4,6,7,11b-hexahydro-9,10-di(methoxy-d3)-3-(2-methylpropyl)-2H-benzo[a]quinolizin-2-one]
- subjects who experienced AEs ([1]; Rollover Cohort): 39 (52.0%) n (%)
- subjects who experienced serious AEs ([1]; Rollover Cohort): Three
- subjects with an AE that led to a dose reduction or dose suspension ([1]; Rollover Cohort): Five
- TEAE Anxiety ([1]; Rollover Cohort (N = 75)): 3 (4.0) n (%)
- TEAE Constipation ([1]; Rollover Cohort (N = 75)): 3 (4.0) n (%)
- TEAE Depression ([1]; Rollover Cohort (N = 75)): 8 (10.7) n (%)
- TEAE Diarrhoea ([1]; Rollover Cohort (N = 75)): 4 (5.3) n (%)
- TEAE Disorientation ([1]; Rollover Cohort (N = 75)): 0 n (%)
- TEAE Dry mouth ([1]; Rollover Cohort (N = 75)): 3 (4.0) n (%)
- TEAE Fall ([1]; Rollover Cohort (N = 75)): 10 (13.3) n (%)
- TEAE Fatigue ([1]; Rollover Cohort (N = 75)): 3 (4.0) n (%)
- TEAE Insomnia ([1]; Rollover Cohort (N = 75)): 6 (8.0) n (%)
- TEAE Irritability ([1]; Rollover Cohort (N = 75)): 3 (4.0) n (%)
- TEAE Nasopharyngitis ([1]; Rollover Cohort (N = 75)): 2 (2.7) n (%)
- TEAE Sleep disorder ([1]; Rollover Cohort (N = 75)): 3 (4.0) n (%)
- TEAE Somnolence ([1]; Rollover Cohort (N = 75)): 6 (8.0) n (%)
- TEAE Vomiting ([1]; Rollover Cohort (N = 75)): 3 (4.0) n (%)
- subjects who experienced AEs ([1]; Rollover Cohort, Day 1 through Week 8): 45.3%
- TMC mean (SD) decrease from baseline ([1]; Rollover Cohort, Week 2): 1.9 (3.0) units
- Total Maximal Chorea Score, Mean (SD) Change from Baseline ([1]; Rollover Cohort, Week 2): −1.9 (2.95)
- Total Maximal Chorea Score, Mean (SD) Score ([1]; Rollover Cohort, Week 2): 10.1 (3.41)
- Total Motor Score, Mean (SD) Change from Baseline ([1]; Rollover Cohort, Week 2): −3.9 (6.67)
- Total Motor Score, Mean (SD) Score ([1]; Rollover Cohort, Week 2): 32.4 (15.23)
- mean decrease in TMS from baseline ([1]; Rollover Cohort, Week 2): 3.9 units
- Total Maximal Chorea Score, Mean (SD) Change from Baseline ([1]; Rollover Cohort, Week 4): −2.5 (3.21)
- Total Maximal Chorea Score, Mean (SD) Score ([1]; Rollover Cohort, Week 4): 9.8 (3.69)
- Total Motor Score, Mean (SD) Change from Baseline ([1]; Rollover Cohort, Week 4): −5.9 (7.88)
- Total Motor Score, Mean (SD) Score ([1]; Rollover Cohort, Week 4): 32.1 (16.84)
- Total Maximal Chorea Score, Mean (SD) Change from Baseline ([1]; Rollover Cohort, Week 8): −4.5 (3.34)
- Total Maximal Chorea Score, Mean (SD) Score ([1]; Rollover Cohort, Week 8): 7.9 (3.91)
- Total Motor Score, Mean (SD) Change from Baseline ([1]; Rollover Cohort, Week 8): −8.3 (8.58)
- Total Motor Score, Mean (SD) Score ([1]; Rollover Cohort, Week 8): 31.0 (18.07)
- subjects who experienced AEs ([1]; Rollover Cohort, Week 8 through the visit cut-off date): 43.2%
- TMC mean (SD) decrease from baseline ([1]; Rollover Cohort, Week 15): 4.5 (5.0) units
- Total Maximal Chorea Score, Mean (SD) Score ([1]; Rollover Cohort, Week 15): 7.9 (4.05)
- Total Motor Score, Mean (SD) Change from Baseline ([1]; Rollover Cohort, Week 15): −8.0 (8.41)
- Total Motor Score, Mean (SD) Score ([1]; Rollover Cohort, Week 15): 30.5 (17.70)
- mean decrease in TMS from baseline ([1]; Rollover Cohort, Week 15): 8.0 units
- Total Motor Score, Mean (SD) Change from Baseline ([1]; Rollover Cohort, Week 15, listed as DTBZ): −8.0
- subjects with AEs assessed as mild or moderate in intensity ([1]; Rollover Cohort, of the 39 subjects with AEs): 36 (92.3%) n (%)
- tolerability ([1]; Rollover and Switch Cohorts): generally well tolerated
- subjects who experienced at least one AE ([1]; Switch Cohort): 21 (56.8%) n (%)
- subjects who experienced serious AEs ([1]; Switch Cohort): Two
- subjects with an AE that led to a dose reduction or dose suspension ([1]; Switch Cohort): four
- withdrawal from the study due to an AE ([1]; Switch Cohort): no subjects withdrew
- TEAE Anxiety ([1]; Switch Cohort (N = 37)): 3 (8.1) n (%)
- TEAE Constipation ([1]; Switch Cohort (N = 37)): 2 (5.4) n (%)
- TEAE Diarrhoea ([1]; Switch Cohort (N = 37)): 2 (5.4) n (%)
- TEAE Disorientation ([1]; Switch Cohort (N = 37)): 2 (5.4) n (%)
- TEAE Dry mouth ([1]; Switch Cohort (N = 37)): 2 (5.4) n (%)
- TEAE Fall ([1]; Switch Cohort (N = 37)): 3 (8.1) n (%)
- TEAE Fatigue ([1]; Switch Cohort (N = 37)): 1 (2.7) n (%)
- TEAE Insomnia ([1]; Switch Cohort (N = 37)): 1 (2.7) n (%)
- TEAE Irritability ([1]; Switch Cohort (N = 37)): 2 (5.4) n (%)
- TEAE Nasopharyngitis ([1]; Switch Cohort (N = 37)): 2 (5.4) n (%)
- TEAE Sleep disorder ([1]; Switch Cohort (N = 37)): 0 n (%)
- TEAE Somnolence ([1]; Switch Cohort (N = 37)): 9 (24.3) n (%)
- TEAE Vomiting ([1]; Switch Cohort (N = 37)): 1 (2.7) n (%)
- Total Maximal Chorea Score, Mean (SD) Score ([1]; Switch Cohort, Week 1): 11.76 (5.11)
- Total Motor Score, Mean (SD) Change from Baseline ([1]; Switch Cohort, Week 1): −2.14 (5.414)
- Total Motor Score, Mean (SD) Score ([1]; Switch Cohort, Week 1): 36.35 (18.043)
- Total Maximal Chorea Score, Mean (SD) Score ([1]; Switch Cohort, Week 4): 11.86 (5.23)
- Total Motor Score, Mean (SD) Change from Baseline ([1]; Switch Cohort, Week 4): −1.85 (8.419)
- Total Motor Score, Mean (SD) Score ([1]; Switch Cohort, Week 4): 37.14 (19.516)
- Total Maximal Chorea Score, Mean (SD) Change from Baseline ([1]; Switch Cohort, Week 8): −1.9
- Total Maximal Chorea Score, Mean (SD) Score ([1]; Switch Cohort, Week 8): 10.10 (5.56)
- Total Motor Score, Mean (SD) Score ([1]; Switch Cohort, Week 8): 34.58 (18.268)
- Total Motor Score, Mean (SD) Change from Baseline ([1]; Switch Cohort, Week 8, listed as DTBZ): −3.7
- Total Maximal Chorea Score, Mean (SD) Score ([1]; Switch Cohort, Week 15): 10.87 (5.99)
- Total Motor Score, Mean (SD) Change from Baseline ([1]; Switch Cohort, Week 15): −1.93 (10.910)
- Total Motor Score, Mean (SD) Score ([1]; Switch Cohort, Week 15): 35.00 (22.984)
- adverse events of chorea or worsening chorea ([1]; Switch Cohort, including first week after conversion from tetrabenazine): no adverse events of chorea or worsening chorea
- subjects with AEs assessed as mild to moderate in intensity ([1]; Switch Cohort, of the 21 subjects with AEs): 20 (95.2%) n (%)
- mean change from baseline in swallowing disturbance (questionnaire) ([1]; patients switched from tetrabenazine to deutetrabenazine (FIG. 7)): trend toward improvement in swallowing
- overall analysis of the safety scales (UHDRS, SDQ, UPDRS dysarthria, BARS, HADS, ESS, C-SSRS, MoCA) ([1]; through Week 28): no increased risk
- deaths in the study [2]: no deaths
